Source: patent US9668960B2, “Methods useful in studying or modulating skin or hair pigmentation, plant extracts for use in compositions and cosmetic care method” (L V M H RECHERCHE, priority 2008, dated 2017)

Legend:
[1] = test system: FM55 melanoma cells; assay: Melanin assay (melanogenesis) in moderately-pigmented FM55 melanoma; type: cell-based, human; details: 72 h; for Changes in melanin levels, FM55 % change: L-18 0.001%, L-19 1%, L-20 0.5%, L-21 10 μg/ml, L-22 1%, L-23 0.05 μg/ml, IBMX 100 μM, NH4Cl 100 μM, niacinamide 10 μM, vs basal; for Melanin content, FM55 (pg/cell): same doses as E3, basal 9.92
Method: Cells were then washed 3-times with sterile PBS and supplemented with 350 μl of either fresh serum-free RPMI medium (melanoma cells) or starved serum-free and BPE-free melanocyte medium (EM) and incubated at 37° C. and 5% CO2 for 24 h. Cells were then washed with sterile PBS 3-times and incubated with IBMX 1×10^-4 M at 37° C. and 5% CO2 for 12, 24, and 72 h. Cells were then gently washed 3-times with sterile PBS and fixed in ice-cold methanol for 10 minutes at -20° C. Slides were stored at -20° C. until immunocytochemistry was performed. […] The melanin standards were pipetted into a 96 well plate to produce a calibration curve for the assessment of melanin content in the test samples. 400 μl of 1 M NaOH was added to each cell pellet and dissolved on a heat block (100° C.) for 15 minutes. The pellets were vortexed vigorously and the solubilized pellet was pipetted into the same 96-well plate. The optical densities of the sample were read at […] on a DYNEX REVELATION 4.02 program. Melanin content of each test sample was read from the calibration curve. […] In addition IBMX and NH4Cl (positive melanocytic modulators) and niacinamide (negative modulator) were used as controls. […] Controls: Melanocytic modulators: IBMX (100 μM), NH4Cl (100 μM), and niacinamide (10 μM). (A) Melanin content was determined spectrophotometrically (475 nm) after sodium hydroxide solubilisation. […] (B). Results were expressed as the change in melanin content (pg/cell) compared to unstimulated control levels. Means are ±SEM of 3 independent experiments with *P<0.05, **P<0.01, ***P<0.001.

[2] = test system: tyrosinase; assay: DOPA oxidase detection for tyrosinase activity in pigmented normal human melanocytes; type: cell-based; details: 72 h; for Changes in tyrosinase activity, F52 EMc % change / % Change in EM Tyrosinase Activity vs. Basal EM level (i.e. 0), EM: L-18 0.001%, L-23 0.05 μg/ml, IBMX 100 μM, niacinamide 10 μM; for Changes in tyrosinase activity, F52 EMc % change: L-19 1%, L-20 0.5%, L-21 10 μg/ml, L-22 1%, NH4Cl 100 μM, vs basal; for % Change in EM Tyrosinase Activity vs. Basal EM level (i.e. 0), EM: EM monoculture (F52)
Method: The cells were prepared for SDS-PAGE and transblotted onto PVDF membranes. 70 μg of un-reduced protein extract without boiling was pipetted into the appropriate wells of 8% SDS-PAGE gels. […] The L-DOPA reaction was stopped by washing the membrane in distilled water and the membrane was scanned. […] In addition IBMX and NH4Cl (positive melanocytic modulators) and niacinamide (negative modulator) were used as controls. […] Normal human epidermal melanocytes (Female-52; p5) were treated for 72 h with L-18 (0.001%), L-19 (1%), L-20 (0.5%), L-21 (10 μg/ml), LVMH-22 (1%) and L-23 (0.05 μg/ml). Controls: Melanocytic modulators: IBMX (100 μM), NH4Cl (100 μM), and niacinamide (10 μM). (A) Protein extracts were electroblotted and membranes stained with L-DOPA for the estimation of tyrosinase activity.

[3] = test system: tyrosinase; assay: DOPA oxidase detection for tyrosinase activity in FM55 melanoma; type: cell-based, human; details: 72 h; for Changes in tyrosinase activity, FM55 % change: same doses as E5, vs basal
Method: The cells were prepared for SDS-PAGE and transblotted onto PVDF membranes. 70 μg of un-reduced protein extract without boiling was pipetted into the appropriate wells of 8% SDS-PAGE gels. […] The L-DOPA reaction was stopped by washing the membrane in distilled water and the membrane was scanned. […] In addition IBMX and NH4Cl (positive melanocytic modulators) and niacinamide (negative modulator) were used as controls. […] Controls: Melanocytic modulators: IBMX (100 μM), NH4Cl (100 μM), and niacinamide (10 μM.). (A) Protein extracts were electroblotted and membranes stained with L-DOPA for the estimation of tyrosinase activity. (B) Densitometric scanning of band intensities and values were expressed as the fold increase compared to unstimulated control levels. Means are ±SEM of 3 independent experiments with *P<0.05, **P<0.01, ***P<0.001.

[4] = test system: melanosome transfer from melanocytes to matched keratinocytes; assay: Quantitative analysis of gp100-positive melanosome transfer in melanocyte-keratinocyte co-culture; type: cell-based, human; details: for gp 100+ Spots/KC / % Change of Melanin Transfer vs. Basal: 24 h; for gp 100+ Spots/KC: co-culture F39, L-18 0.001%, L-19 1%, L-20 0.5%, L-21 10 μg/ml, L-22 1%, L-23 0.05 μg/ml, basal 27.3; for % Change of Melanin Transfer vs. Basal: same doses as E10
Method: Quantitative analysis of melanosome transfer: Fully-matched epidermal melanocytes (p4) and epidermal keratinocytes (p2) from 4 normal individuals (i.e., F39; F67; F54; F52) were maintained in 8-well Lab-Tek® chamber slides at a total cell density of 2×10^4 cells/well and in a ratio of 1 melanocyte to 10 normal keratinocytes. The co-culture was maintained for further 24 h before washing 3-times with sterile PBS before incubation with starved medium alone, or L-18 (0.001%), L-19 (1%), L-20 (0.5%), L-21 (10 μg/ml), L-22 (1%) and L-23 (0.05 μg/ml) for 12 and 72 h. Controls included IBMX (100 μM) and niacinamide (10 μM). Cells were then processed for immunofluorescence staining with gp100 to assess melanosome transfer to keratinocytes.
Evaluation of melanosome transfer was performed by counting fluorescent gp100-positive spots within recipient keratinocytes in 5 random microscopic fields per well at 100× magnification (oil-immersion) in 3 independent experiments. To avoid counting melanin granules that may still be associated with melanocytes, we only counted gp100-positive spots within keratinocytes that were not in direct contact with melanocytes.
Gp100 immunostaining provides a powerful tracking method for the global assessment of melanin transfer to keratinocytes, and for the evaluation of melanocyte phenotype modulators (Singh et al., 2008). […] In this assay melanosome transfer from melanocytes to matched keratinocytes under basal (i.e., unstimulated) conditions was determined at an average of 27.3 gp100-positive spots per keratinocyte. However, this was increased almost 4-fold after 24 h stimulation of co-cultures with IBMX to 99.5 gp100-positive spots per keratinocyte. Conversely, niacinamide reduced melanosome transfer by 28% (19.6 gp100-positive spots per keratinocyte; p<0.01; a result that correlates with its clinical use as a lightener of cutaneous pigmentation (Hakozaki et al, 2002; Greatens et al., 2005).
Means are ±SEM of 4 independent experiments with **P<0.01, ***P<0.001.

Row | Structure (SMILES) | Changes in melanin levels, FM55 % change [1] | Melanin content, FM55 (pg/cell) [1] | Changes in tyrosinase activity, F52 EMc % change [2] | % Change in EM Tyrosinase Activity vs. Basal EM level (i.e. 0), EM [2] | Changes in tyrosinase activity, FM55 % change [3] | gp 100+ Spots/KC ([4]; IBMX 100 μM, niacinamide 10 μM) [Spots/KC] | % Change of Melanin Transfer vs. Basal [4] | melanosome transfer reduced by ([4]; niacinamide 10 μM, p<0.01) [%] | effect on melanin content compared with basal levels ([1]; FM55 melanoma cells, doses as E3) | effect on tyrosinase (dopa oxidase) activity compared with basal levels ([2]; normal melanocytes (EM), doses as E5) | effect on tyrosinase (dopa oxidase) activity compared with basal levels ([3]; FM55 melanoma cells, doses as E5) | melanosome transfer increased, fold versus basal ([4]; 24 h stimulation of co-cultures, IBMX 100 μM) [fold]
1 | NC(=O)c1cccnc1 [niacinamide] | −5.94% | (9.33) pg/cell | −4.58% | −2.12% | −3.31% | 19.6 | −28% | 28 |  |  |  | 
2 | CC(C)Cn1c(=O)n(C)c(=O)c2[nH]cnc21 [IBMX] | +250.8% | (34.8) pg/cell | +72.47% | +56.51% | +141.72% | 99.5 | +264% |  | visible increases in melanogenesis | dramatic increase in dopa oxidase activity of tyrosinase | dramatic increase in dopa oxidase activity of tyrosinase | ~4
